The results in this text go back to ChEMBL document CHEMBL5052856, “Inhibitors of apol1 and methods of using same” (2021).

The structures appear in SMILES notation.

This assay addresses Apolipoprotein L1 (Homo sapiens, UniProt O14791). As to the kind of experiment: Inhibition of APOL1 G1 variant in human HEK293-T-REx cells measured by Thallium assay. The class given is cell-based.

The molecule `CC1(O)CC(NC(=O)O[C@H]2C[C@H](c3c(-c4ccc(F)cc4)[nH]c4c(F)cc(F)cc43)C2)C1` (some centres undefined) returned a half-inhibitory concentration (IC50) of more than 1000 nM. Next, `COCC1(CNC(=O)C2CC(Cc3c(-c4ccc(F)cc4)[nH]c4c(F)cc(F)cc34)C2)CC1` (centres undefined): more than 1000 nM.

On to `O=C(N[C@@H](CO)C(F)F)[C@H]1C[C@@H](c2c(-c3ccc(F)cc3)[nH]c3c(F)cc(F)cc32)C1`, for which the IC50 amounted to 0.25 nM. In other words, the sub-nanomolar range. In the case of `O=C(NC1(CO)CCC1)[C@H]1C[C@@H](c2c(-c3ccc(F)cc3)[nH]c3c(F)cc(F)cc32)C1` it was 0.25 nM; in that of `C[C@@H](CO)NC(=O)O[C@H]1C[C@H](c2c(-c3ccc(F)cc3)[nH]c3c(F)cc(F)cc32)C1`, 0.25 nM.

Molecule `Cn1ccnc1CNC(=O)C1CC(Cc2c(-c3ccc(F)cc3)[nH]c3c(F)cc(F)cc23)C1` (centres undefined) showed an IC50 of more than 1000 nM. `O=C1NC[C@@H](O)[C@@H]1NC(=O)[C@H]1C[C@@H](c2c(-c3ccc(F)cc3)[nH]c3c(F)cc(F)cc32)C1` registered an IC50 of more than 1000 nM. Next, `CS(=O)(=O)CCNC(=O)C1CC(Cc2c(-c3ccc(F)cc3)[nH]c3c(F)cc(F)cc23)C1` (centres undefined): more than 1000 nM.

In turn, `CC1(O)CC(NC(=O)NC[C@H]2C[C@H](c3c(-c4ccc(F)cc4)[nH]c4c(F)cc(F)cc43)C2)C1` (some centres undefined) registered an IC50 of more than 1000 nM. With `O=C1NCC[C@H]1NC(=O)[C@H]1C[C@@H](c2c(-c3ccc(F)cc3)[nH]c3c(F)cc(F)cc32)C1`, the half-maximal inhibitory concentration (IC50) is more than 1000 nM.

Molecule `C[C@@H](O)CNC(=O)[C@H]1C[C@@H](c2c(-c3ccc(F)cc3)[nH]c3c(F)cc(F)cc32)C1` had an IC50 of more than 1000 nM. In the case of `O=C(NCC1CCOC1)O[C@H]1C[C@H](c2c(-c3ccc(F)cc3)[nH]c3c(F)cc(F)cc32)C1` (some centres undefined) it was more than 1000 nM.

`CCNC(=O)N1CC(c2c(-c3ccc(F)cc3)[nH]c3c(F)cc(F)cc23)C1`: the IC50 stood at 0.25 nM.

For `COC[C@H](C)NC(=O)O[C@H]1C[C@H](c2c(-c3ccc(F)cc3)[nH]c3c(F)cc(F)cc32)C1`, the IC50 was more than 1000 nM. In turn, `O=C(NC[C@H]1C[C@H](c2c(-c3ccc(F)cc3)[nH]c3c(F)cc(F)cc32)C1)N[C@H]1C[C@H](O)C1` had an IC50 of more than 1000 nM. In the case of `O=C(CC1CC(c2c(-c3ccc(F)cc3)[nH]c3c(F)cc(F)cc23)C1)NC1(CO)CC1` (centres undefined) it was 0.25 nM; in that of `NC(=O)CNC(=O)[C@H]1C[C@@H](c2c(-c3ccc(F)cc3)[nH]c3c(F)cc(F)cc32)C1`, more than 1000 nM. Next, `O=C1CCC(NC(=O)[C@H]2C[C@@H](c3c(-c4ccc(F)cc4)[nH]c4c(F)cc(F)cc43)C2)C(=O)N1` (some centres undefined): more than 1000 nM; `CC1CC(NC(=O)NC[C@H]2C[C@H](c3c(-c4ccc(F)cc4)[nH]c4c(F)cc(F)cc43)C2)C(=O)O1` (some centres undefined): more than 1000 nM. As to `O=C1NCCCC1NC(=O)[C@H]1C[C@@H](c2c(-c3ccc(F)cc3)[nH]c3c(F)cc(F)cc32)C1` (some centres undefined), the IC50 was more than 1000 nM.

The molecule `O=C(NCC1(O)COC1)NC[C@H]1C[C@H](c2c(-c3ccc(F)cc3)[nH]c3c(F)cc(F)cc32)C1` gave an IC50 of more than 1000 nM.

Take `O=C(NC[C@H]1C[C@H](c2c(-c3ccc(F)cc3)[nH]c3c(F)cc(F)cc32)C1)NC(CO)C(F)(F)F` (some centres undefined): the IC50 is more than 1000 nM. In the case of `CC(O)C(C)NC(=O)O[C@H]1C[C@H](c2c(-c3ccc(F)cc3)[nH]c3c(F)cc(F)cc32)C1` (some centres undefined) it was more than 1000 nM. In the case of `O=C(CC1CC(c2c(-c3ccc(F)cc3)[nH]c3c(F)cc(F)cc23)C1)NCCO` (centres undefined) it was more than 1000 nM. As to `NC(=O)CCNC1CC(c2c(-c3ccc(F)cc3)[nH]c3c(F)cc(F)cc23)C1` (centres undefined), the IC50 was more than 1000 nM. Next, `O=C(NC[C@H]1C[C@H](c2c(-c3ccc(F)cc3)[nH]c3c(F)cc(F)cc32)C1)NC1CC(O)C1` (some centres undefined): more than 1000 nM; `Cn1nccc1NC(=O)[C@H]1C[C@@H](c2c(-c3ccc(F)cc3)[nH]c3c(F)cc(F)cc32)C1`: more than 1000 nM. In the case of `CC(C)(CO)NC(=O)[C@H]1C[C@@H](c2c(-c3ccc(F)cc3)[nH]c3c(F)cc(F)cc32)C1` it was 0.25 nM. The molecule `CC(C)[C@@H](CO)NC(=O)O[C@H]1C[C@H](c2c(-c3ccc(F)cc3)[nH]c3c(F)cc(F)cc32)C1` came in with an IC50 of more than 1000 nM. `CC1(CNC(=O)C2CC(Cc3c(-c4ccc(F)cc4)[nH]c4c(F)cc(F)cc34)C2)CCOC1` (centres undefined) displayed an IC50 of more than 1000 nM. Next, `NC(=O)CNC1CC(c2c(-c3ccc(F)cc3)[nH]c3c(F)cc(F)cc23)C1` (centres undefined): more than 1000 nM. Next, `O=C(Nc1ccc[nH]c1=O)C1CC(Cc2c(-c3ccc(F)cc3)[nH]c3c(F)cc(F)cc23)C1` (centres undefined): more than 1000 nM; `C[C@H](CO)NC(=O)O[C@H]1C[C@H](c2c(-c3ccc(F)cc3)[nH]c3c(F)cc(F)cc32)C1`: 0.25 nM; `Cc1noc(CNC(=O)C2CC(Cc3c(-c4ccc(F)cc4)[nH]c4c(F)cc(F)cc34)C2)n1` (centres undefined): more than 1000 nM. In the case of `CC1(NC(=O)C2CC(Cc3c(-c4ccc(F)cc4)[nH]c4c(F)cc(F)cc34)C2)CCNC1=O` (centres undefined) it was more than 1000 nM; in that of `O=C(CNC[C@H]1C[C@H](c2c(-c3ccc(F)cc3)[nH]c3c(F)cc(F)cc32)C1)NC1CC1`, 0.25 nM; in that of `Cc1cnc(CNC(=O)O[C@H]2C[C@H](c3c(-c4ccc(F)cc4)[nH]c4c(F)cc(F)cc43)C2)o1`, more than 1000 nM. `O=C(NC1CC(O)C1)[C@H]1C[C@@H](c2c(-c3ccc(F)cc3)[nH]c3c(F)cc(F)cc32)C1` (some centres undefined): the IC50 is more than 1000 nM. In the case of `C[C@H](O)CNC(=O)C1CC(Cc2c(-c3ccc(F)cc3)[nH]c3c(F)cc(F)cc23)C1` (some centres undefined) it was more than 1000 nM; in that of `CC(C)C[C@H](CO)NC(=O)C1CC(Cc2c(-c3ccc(F)cc3)[nH]c3c(F)cc(F)cc23)C1` (some centres undefined), more than 1000 nM; in that of `CN1CCN(C(=O)CNCC2CC(c3c(-c4ccc(F)cc4)[nH]c4c(F)cc(F)cc34)C2)CC1` (centres undefined), more than 1000 nM. In the case of `Cn1cc(CNC(=O)O[C@H]2C[C@H](c3c(-c4ccc(F)cc4)[nH]c4c(F)cc(F)cc43)C2)nn1` it was more than 1000 nM; in that of `O=C(NC1(CCO)CC1)C1CC(Cc2c(-c3ccc(F)cc3)[nH]c3c(F)cc(F)cc23)C1` (centres undefined), more than 1000 nM; in that of `O=C(NCC1(CO)COC1)NC[C@H]1C[C@H](c2c(-c3ccc(F)cc3)[nH]c3c(F)cc(F)cc32)C1`, more than 1000 nM.

As to `CC1(C)CC(NC(=O)NC[C@H]2C[C@H](c3c(-c4ccc(F)cc4)[nH]c4c(F)cc(F)cc43)C2)C(=O)O1` (some centres undefined), the concentration for half-maximal inhibition (IC50) is more than 1000 nM. In the case of `Cn1cnc(CNC(=O)C2CC(Cc3c(-c4ccc(F)cc4)[nH]c4c(F)cc(F)cc34)C2)c1` (centres undefined) it was more than 1000 nM; in that of `O=C(NCC1(O)CCCC1)C1CC(Cc2c(-c3ccc(F)cc3)[nH]c3c(F)cc(F)cc23)C1` (centres undefined), more than 1000 nM; in that of `O=C(NCCO)C1CC(c2c(-c3ccc(F)cc3)[nH]c3c(F)cc(C(F)(F)F)cc23)C1` (centres undefined), 0.25 nM. In the case of `O=C(N[C@@H](CO)C(F)(F)F)C1CC(Cc2c(-c3ccc(F)cc3)[nH]c3c(F)cc(F)cc23)C1` (some centres undefined) it was more than 1000 nM. Next, `CC(C)C(CO)NC(=O)[C@H]1C[C@@H](c2c(-c3ccc(F)cc3)[nH]c3c(F)cc(F)cc32)C1` (some centres undefined): more than 1000 nM. Molecule `CC(C)C(CO)NC(=O)O[C@H]1C[C@H](c2c(-c3ccc(F)cc3)[nH]c3c(F)cc(F)cc32)C1` (some centres undefined) registered an IC50 of more than 1000 nM. Next, `Cn1nccc1CNC(=O)[C@H]1C[C@@H](c2c(-c3ccc(F)cc3)[nH]c3c(F)cc(F)cc32)C1`: more than 1000 nM; `O=C(CNC[C@H]1C[C@H](c2c(-c3ccc(F)cc3)[nH]c3c(F)cc(F)cc32)C1)NCO`: less than 250 nM. In the case of `O=C(NCc1ncc[nH]1)O[C@H]1C[C@H](c2c(-c3ccc(F)cc3)[nH]c3c(F)cc(F)cc32)C1` it was more than 1000 nM. Next, `CN(C(=O)NC[C@H]1C[C@H](c2c(-c3ccc(F)cc3)[nH]c3c(F)cc(F)cc32)C1)C1COCC1O` (some centres undefined): more than 1000 nM.

`CC[C@H](NCC1CC(c2c(-c3ccc(F)cc3)[nH]c3c(F)cc(F)cc23)C1)C(=O)NCC(F)(F)F` (some centres undefined) came in with an IC50 of more than 1000 nM. As to `C[C@H](CO)N(C)C(=O)NC[C@H]1C[C@H](c2c(-c3ccc(F)cc3)[nH]c3c(F)cc(F)cc32)C1`, the IC50 is more than 1000 nM. In turn, `O=C(NC[C@H]1C[C@H](c2c(-c3ccc(F)cc3)[nH]c3c(F)cc(F)cc32)C1)NC1(CO)CC(F)(F)C1` displayed an IC50 of more than 1000 nM. Next, `O=C(NC1CC(O)C1)O[C@H]1C[C@H](c2c(-c3ccc(F)cc3)[nH]c3c(F)cc(F)cc32)C1` (some centres undefined): more than 1000 nM; `O=C(CC1CC(c2c(-c3ccc(F)cc3)[nH]c3c(F)cc(F)cc23)C1)NC1(CO)CCC1` (centres undefined): more than 1000 nM; `O=C(NC(CO)CO)[C@H]1C[C@@H](c2c(-c3ccc(F)cc3)[nH]c3c(F)cc(F)cc32)C1`: more than 1000 nM. As to `O=C(NCc1cnn(CC(F)(F)F)c1)C1CC(Cc2c(-c3ccc(F)cc3)[nH]c3c(F)cc(F)cc23)C1` (centres undefined), the IC50 is more than 1000 nM. Next, `C[C@@H](CO)NC(=O)CC1CC(c2c(-c3ccc(F)cc3)[nH]c3c(F)cc(F)cc23)C1` (some centres undefined): more than 1000 nM; `O=C1NC[C@@H](O)[C@@H]1NC(=O)[C@H]1C[C@H](c2c(-c3ccc(F)cc3)[nH]c3c(F)cc(F)cc32)C1`: less than 250 nM. `O=C(CNC(=O)[C@H]1C[C@H](c2c(-c3ccc(F)cc3)[nH]c3c(F)cc(F)cc32)C1)NCCO` had an IC50 of more than 1000 nM. In turn, `O=C(NCc1ccc(=O)[nH]c1)C1CC(Cc2c(-c3ccc(F)cc3)[nH]c3c(F)cc(F)cc23)C1` (centres undefined) yielded an IC50 of more than 1000 nM. In the case of `O=C([C@H]1C[C@@H](c2c(-c3ccc(F)cc3)[nH]c3c(F)cc(F)cc32)C1)N1C[C@@H](O)[C@H](O)C1` it was more than 1000 nM. `Cc1ccc(CNC(=O)O[C@H]2C[C@H](c3c(-c4ccc(F)cc4)[nH]c4c(F)cc(F)cc43)C2)o1` yielded an IC50 of more than 1000 nM.

In turn, `O=C(NCC1CCOCC1)C1CC(Cc2c(-c3ccc(F)cc3)[nH]c3c(F)cc(F)cc23)C1` (centres undefined) displayed an IC50 of more than 1000 nM. Next, `CNC(=O)CNC[C@H]1C[C@H](c2c(-c3ccc(F)cc3)[nH]c3c(F)cc(F)cc32)C1`: less than 250 nM; `Cn1cc(CNC(=O)C2CC(Cc3c(-c4ccc(F)cc4)[nH]c4c(F)cc(F)cc34)C2)cn1` (centres undefined): more than 1000 nM; `O=C(NC[C@H]1CC[C@@H](CO)O1)NC[C@H]1C[C@H](c2c(-c3ccc(F)cc3)[nH]c3c(F)cc(F)cc32)C1`: more than 1000 nM. `CON(C)C(=O)CNC[C@H]1C[C@H](c2c(-c3ccc(F)cc3)[nH]c3c(F)cc(F)cc32)C1` registered a 50% inhibitory concentration (IC50) of 0.25 nM. In the case of `CC(C)CC(NCC1CC(c2c(-c3ccc(F)cc3)[nH]c3c(F)cc(F)cc23)C1)C(N)=O` (centres undefined) it was more than 1000 nM.
